# PMC9945182 (Chemical Research in Toxicology, 2023)
# Read-outs that look alike come from different tables or passages of the source.
# Experiments:
# CYP2A6 [1] = target: T1, CYP2A6 (Homo sapiens, UniProt P11509); type: biochemical; details: for decrease of 3HC formation: cotinine substrate, CYP2A6 microsomes; for IC50: cotinine 100 μM, rec CYP2A6 microsomes
# T1 sequence (P11509 1-494): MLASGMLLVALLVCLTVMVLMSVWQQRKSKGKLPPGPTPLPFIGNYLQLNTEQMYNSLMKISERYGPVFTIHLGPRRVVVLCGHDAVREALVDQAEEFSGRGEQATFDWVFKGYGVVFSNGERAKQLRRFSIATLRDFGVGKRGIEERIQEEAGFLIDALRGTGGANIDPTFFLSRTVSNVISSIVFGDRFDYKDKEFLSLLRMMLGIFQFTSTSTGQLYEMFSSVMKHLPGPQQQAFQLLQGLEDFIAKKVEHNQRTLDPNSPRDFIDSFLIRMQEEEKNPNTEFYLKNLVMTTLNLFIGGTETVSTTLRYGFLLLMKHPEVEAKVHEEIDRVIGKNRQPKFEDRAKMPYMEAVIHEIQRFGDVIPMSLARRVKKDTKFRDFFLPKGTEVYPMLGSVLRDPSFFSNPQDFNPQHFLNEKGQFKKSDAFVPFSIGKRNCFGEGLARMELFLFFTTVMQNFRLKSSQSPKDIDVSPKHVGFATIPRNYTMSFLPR
# CYP2A6 [2] = target: T1, CYP2A6; type: biochemical; details: for inhibition of nornicotine formation: nicotine substrate, CYP2A6 microsomes; for IC50: nicotine 50 μM, rec CYP2A6 microsomes
# CYP2A6 [3] = target: T1, CYP2A6; type: biochemical; details: for inhibition of cotinine formation: nicotine substrate, CYP2A6 microsomes, vs 100% activity control; for IC50: nicotine 100 μM, rec CYP2A6 microsomes
# FMO3 = target: T2, FMO3 (Homo sapiens, UniProt P31513); type: biochemical; details: 1 or 10 μM cannabinoid; nicotine 1 mM; FMO3 microsomes
# T2 sequence (P31513 1-532): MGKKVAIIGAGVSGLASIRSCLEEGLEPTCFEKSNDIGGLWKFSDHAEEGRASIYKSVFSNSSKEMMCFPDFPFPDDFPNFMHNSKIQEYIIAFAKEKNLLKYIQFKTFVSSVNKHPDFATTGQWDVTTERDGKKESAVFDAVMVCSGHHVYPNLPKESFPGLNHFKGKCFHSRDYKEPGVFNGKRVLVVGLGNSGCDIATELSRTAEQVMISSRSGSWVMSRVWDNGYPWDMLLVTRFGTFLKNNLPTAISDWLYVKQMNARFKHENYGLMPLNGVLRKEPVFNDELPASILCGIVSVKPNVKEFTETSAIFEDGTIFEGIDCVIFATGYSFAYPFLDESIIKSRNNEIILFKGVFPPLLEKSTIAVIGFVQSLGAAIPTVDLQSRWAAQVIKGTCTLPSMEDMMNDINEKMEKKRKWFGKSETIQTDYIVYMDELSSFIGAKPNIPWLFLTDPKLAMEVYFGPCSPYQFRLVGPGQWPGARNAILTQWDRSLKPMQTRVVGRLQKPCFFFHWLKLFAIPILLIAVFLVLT
# [4] = test system: human liver microsomes (HLM); assay: Inhibition of cotinine to 3HC formation in pooled human liver microsomes; type: biochemical; details: cotinine 900 μM
# FMO1 = target: T3, FMO1 (Homo sapiens, UniProt Q01740); type: biochemical; details: 1 or 10 μM cannabinoid; nicotine 1 mM; FMO1 microsomes
# T3 sequence (Q01740 1-532): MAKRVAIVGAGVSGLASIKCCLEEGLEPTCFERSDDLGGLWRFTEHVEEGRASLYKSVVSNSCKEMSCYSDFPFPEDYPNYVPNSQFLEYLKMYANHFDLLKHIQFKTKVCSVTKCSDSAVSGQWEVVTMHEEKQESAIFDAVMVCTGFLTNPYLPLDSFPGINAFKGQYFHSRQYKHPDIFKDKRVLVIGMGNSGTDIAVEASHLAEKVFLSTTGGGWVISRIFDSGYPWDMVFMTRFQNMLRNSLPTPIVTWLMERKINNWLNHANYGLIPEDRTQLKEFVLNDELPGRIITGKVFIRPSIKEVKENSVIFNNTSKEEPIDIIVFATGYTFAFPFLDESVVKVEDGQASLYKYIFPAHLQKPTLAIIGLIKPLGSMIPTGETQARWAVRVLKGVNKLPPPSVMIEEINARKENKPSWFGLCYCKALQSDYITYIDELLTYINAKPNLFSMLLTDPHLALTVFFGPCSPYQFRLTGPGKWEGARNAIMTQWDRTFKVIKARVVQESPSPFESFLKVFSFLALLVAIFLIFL
# [5] = test system: human liver microsomes (HLM); assay: Inhibition of nicotine to cotinine formation in pooled human liver microsomes; type: biochemical; details: nicotine 500 μM
# [6] = cited from earlier work; for physiological levels in the plasma corrected for plasma protein binding: after a single clinical dose of CBD
# CYP2B6 = target: T4, CYP2B6 (Homo sapiens, UniProt P20813); type: biochemical; details: for inhibition of nornicotine formation: nicotine substrate, CYP2B6 microsomes
# T4 sequence (P20813 1-491): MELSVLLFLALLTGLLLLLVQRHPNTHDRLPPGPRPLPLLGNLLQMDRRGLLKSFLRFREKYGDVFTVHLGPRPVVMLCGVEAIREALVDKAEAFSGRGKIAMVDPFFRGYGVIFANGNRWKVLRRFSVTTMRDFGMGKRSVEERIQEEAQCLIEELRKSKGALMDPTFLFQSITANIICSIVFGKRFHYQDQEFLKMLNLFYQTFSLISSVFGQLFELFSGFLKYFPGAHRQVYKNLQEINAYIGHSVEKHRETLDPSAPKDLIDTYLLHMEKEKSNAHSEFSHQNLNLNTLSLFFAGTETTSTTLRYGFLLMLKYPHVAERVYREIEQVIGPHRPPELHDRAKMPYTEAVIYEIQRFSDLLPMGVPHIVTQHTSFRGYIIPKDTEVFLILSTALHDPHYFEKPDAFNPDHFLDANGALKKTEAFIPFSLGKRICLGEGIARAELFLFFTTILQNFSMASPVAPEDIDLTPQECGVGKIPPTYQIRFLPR
# [7] = single dose regimen of Epidiolex (6000 mg)
# [8] = human, microsomes from CYP2B6-overexpressing HEK293 cells, pH 7.4, probe nicotine (nornicotine formation)
smiles,measurement,setting,value
"C=C(C)[C@@H]1CCC(CO)=C[C@H]1c1c(O)cc(CCCCC)cc1O [7-OH-CBD, 7-hydroxy-cannabidiol]",decrease of 3HC formation,CYP2A6 [1]; 1 μM inhibitor,45%
same,decrease of 3HC formation,CYP2A6 [1]; 10 μM inhibitor,65%
same,IC50,CYP2A6 [1]; 3HC formation,10000 ± 3000 nM
same,IC50,"CYP2A6 [1]; read-out: IC50,u (binding-corrected IC50), 3HC formation, IC50 × fu,inc",780 ± 230 nM
same,inhibition of nornicotine formation,CYP2A6 [2]; 1 μM inhibitor,55%
same,inhibition of nornicotine formation,CYP2A6 [2]; 10 μM inhibitor,70%
same,IC50,CYP2A6 [2]; nornicotine formation,2100 ± 970 nM
same,IC50,"CYP2A6 [2]; read-out: IC50,u (binding-corrected IC50), nornicotine formation, IC50 × fu,inc",160 ± 80 nM
same,inhibition of cotinine formation,CYP2A6 [3]; 1 μM inhibitor,50%
same,inhibition of cotinine formation,CYP2A6 [3]; 10 μM inhibitor,75%
same,IC50,"CYP2A6 [3]; cotinine formation, mean ± SD of three experiments",5800 ± 2300 nM
same,IC50,"CYP2A6 [3]; read-out: IC50,u (binding-corrected IC50), cotinine formation, IC50 × fu,inc",450 ± 180 nM
same,inhibitory effect on NOX formation,FMO3,No inhibitory effect
same,IC50,[4],9100 ± 3400 nM
same,inhibitory effect on NOX formation,FMO1,No inhibitory effect
same,IC50,[5],21000 ± 5200 nM
same,physiological levels in the plasma corrected for plasma protein binding,[6],0.04–0.09 μM
same,calculated unbound plasma Cmax,[6]; [7],93.6 nM
same,inhibition of nornicotine formation,CYP2B6; 1 μM inhibitor,64%
same,inhibition of nornicotine formation,CYP2B6; 10 μM inhibitor,72%
same,IC50,"CYP2B6; nornicotine formation, nicotine 100 μM, rec CYP2B6 microsomes",1400 ± 400 nM
same,IC50,"CYP2B6; read-out: IC50,u (binding-corrected IC50), nornicotine formation, nicotine 100 μM, rec CYP2B6 microsomes, IC50 × fu,inc",110 ± 30 nM
"C=C(C)[C@@H]1CCC(C)=C[C@H]1c1c(O)cc(CCCCC)cc1O [CBD, cannabidiol]",decrease of 3HC formation,CYP2A6 [1]; 1 μM inhibitor,55%
same,decrease of 3HC formation,CYP2A6 [1]; 10 μM inhibitor,60%
same,IC50,"CYP2A6 [1]; IC50, 3HC formation",3400 ± 2300 nM
same,IC50,"CYP2A6 [1]; IC50,u (binding-corrected IC50), 3HC formation, IC50 × fu,inc",210 ± 140 nM
same,IC50,"CYP2A6 [2]; IC50, nornicotine formation",3700 ± 2200 nM
same,IC50,"CYP2A6 [2]; IC50,u (binding-corrected IC50), nornicotine formation, IC50 × fu,inc",230 ± 140 nM
same,IC50,"CYP2A6 [3]; IC50, cotinine formation, mean ± SD of three experiments",4400 ± 1000 nM
same,IC50,"CYP2A6 [3]; IC50,u (binding-corrected IC50), cotinine formation, IC50 × fu,inc",270 ± 60 nM
same,inhibitory effect on NOX formation,FMO3,No inhibitory effect
same,IC50,[4],8800 ± 1300 nM
same,inhibitory effect on NOX formation,FMO1,No inhibitory effect
same,IC50,[5],10000 ± 2900 nM
same,physiological levels in the plasma corrected for plasma protein binding,[6],0.06–0.15 μM
same,Cmax,"[6]; read-out: plasma Cmax (maximum concentration), total, single dose regimen of Epidiolex (6000 mg)",2500 nM
same,calculated unbound plasma Cmax,[6]; [7],75 nM
same,IC50,"CYP2B6; IC50, nornicotine formation, nicotine 100 μM, rec CYP2B6 microsomes",470 ± 77 nM
same,IC50,"CYP2B6; IC50,u (binding-corrected IC50), nornicotine formation, nicotine 100 μM, rec CYP2B6 microsomes, IC50 × fu,inc",29 ± 5 nM
same,IC50 at 30 min,"CYP2B6; human, microsomes from CYP2B6-overexpressing HEK293 cells, pH 7.4, probe nicotine 100 μM (nornicotine formation), IC50,u (binding-corrected IC50), nornicotine formation, nicotine 100 μM, rec CYP2B6 microsomes, IC50 × fu,inc",30 ± 5 nM
same,"inhibition at 30 min, 1 µM",CYP2B6; [8],75%
same,"inhibition at 30 min, 10 µM",CYP2B6; [8],85%
